Measured values from EP2292587A1, “PHARMACEUTICAL COMPOSITION FOR INHIBITING THE TRANSCRIPTION FACTOR INDUCIBLE BY HYPOXIA, MODULATORS OF PATHOLOGICAL PROCESSES OF ANGIOGENESIS, ONCOGENESIS, INFLAMMATION, APOPTOSIS, AND CELLULAR THERAPY” (Fundacion De La Comunidad Valenciana Centro De …, priority 2008, dated 2009).

Key:
[1] = test system: c-FOS; assay: selectivity luciferase assay, Hek 293-TRE-LUC; type: cell-based; details: 0-1 µM, 6 hours
Procedure: The selectivity assays with the active compound FM19G11 were performed in white 96-well plates using the recombinant strains Hek 293-TRE-LUC and Hek 293-CRE-LUC which represent the transcriptional activity of transcription factors of the AP-1 complex. The luciferase assay for measuring transcriptional activity was performed using the kit Bright-Glo™ Luciferase Assay System (Promega, Inc., Madison, WI), following the instructions supplied by the manufacturer and the Hek 293-TRE-LUC and Hek 293-CRE-LUC lines contain the response elements of transcription factors of the AP-1 complex, specifically of c-FOS and JUNB, respectively. The Hek 293-TRE-LUC and Hek 293-CRE-LUC lines were provided by Dr. Rosa Farrás.

[2] = test system: mTOR; assay: activation kinetics of mTOR signaling pathway, HCT116/p53-/-; type: cell-based, human; details: 0.5 µM
Procedure: Due to the crucial role of p53 as a tumor-suppressing agent, it was analyzed in HCT116 cells how FM19G11 affected the activation kinetics of proteins involved in favoring cell cycle progress, specifically the mTOR cell signaling pathway. An increase of cell progress can be due to replicative stress which generates DNA damage (Bartkova, J, Horejsi, Z, Koed, K, Kramer, A, Tort, F, Zieger, K et al., (2005) DNA damage response as a candidate anti-cancer barrier in early human tumorigenesis. Nature 434: 864-70; Bartkova, J, Rezaei, N, Liontos, M, Karakaidos, P, Kletsas, D, Issaeva, N et al., (2006) Oncogene-induced senescence is part of the tumorigenesis barrier imposed by DNA damage checkpoints. Nature 444: 633-7; Di Micco, R, Fumagalli, M, Cicalese, A, Piccinin, S, Gasparini, P, Luise, C et al., (2006) Oncogene-induced senescence is a DNA damage response triggered by DNA hyper-replication. Nature 444: 638-42), it was explored if the DDR triggered by FM19G11 was related to an increase of the cell cycle progress signal modulated by the mTOR signaling pathway. […]

[3] = test system: mouse neurospheres (neural stem cells); assay: microsatellite genomic instability in neurospheres; type: cell-based
Procedure: By using specific fluorescence-labeled primers for microsatellite sequence markers, the genomic stability of neurospheres in normoxia (Nx), hypoxia (Hx) or hypoxia+FM19G11 (Hx+19G11) was analyzed. […] The treatment with FM19G11 enabled the recovery of the normoxia profiles (used as a reference or control), thus preventing the genomic instability caused by hypoxia.

## Cc1ccc(C(=O)COC(=O)c2cccc(NC(=O)c3ccc([N+](=O)[O-])cc3[N+](=O)[O-])c2)cc1 [FM19G11, 2-oxo-2-(p-tolyl)ethyl 3-((2,4-dinitro)benzamido)benzoate]
[1]
  transcriptional levels of Hek 293-TRE-LUC: not affected in any case
[2]
  mTOR phosphorylation (fold change): ≤ 2
[3]
  genomic instability caused by hypoxia (microsatellite markers mBAT59, mBAT67): prevented
